Laboratory results: patent US20230109839A1, “THERAPEUTIC AGENT FOR TAUOPATHIES” (SUMITOMO PHARMA CO., LTD., priority 2020, published 2023)

target: T1, human Nav1.1 (Homo sapiens, UniProt P35498); assay: Amplification of Nav1.1-derived voltage-gated sodium current (Nav1.1 current), automated patch clamp (Test 1); format: cell-based; conditions: Concentration for evaluation 1 μM; HEK293 cell line stably expressing human Nav1.1
T1 construct: host or cells: HEK293
Procedure: Test 1: Evaluation of the Amplification of Nav1.1-Derived Voltage-Gated Sodium Current (Nav1.1 Current) by Using a Cell Line Stably Expressing Human Nav1.1
(1) Preparation of Test Compound Solution
Test compounds were prepared by dissolving in DMSO at 200 times of the concentration at evaluation, and diluting the obtained solution to twice the concentration of evaluation with an extracellular fluid (135 mmol/L NaCl, 4 mmol/L KCl, 1 mmol/L MgCl2, 5 mmol/L CaCl2, 5 mmol/L Glucose, 10 mmol/L HEPES).
(2) Induction and Measurement of Nav1.1 Current
A HEK293 cell line stably expressing human Nav1.1 (cat #CYL3009, Eurofins DiscoverX Products, LLC, Human Embryonic Kidney 293) was purchased, and used in the present test. Nav1.1 current was induced by stimulating Ramp wave voltage. Detection of current which accompanied with the stimulation of voltage was carried out by a patch-clamp voltage-clamp method using HTS automated patch clamp system (SynchroPatch 768PE, Nanion Technologies GmbH, Germany). Only cells with more than 500 pA of voltage-gated sodium channel current were used for the evaluation of the activity of compounds on Nav1.1 current because there was the possibility that currents derived from endogenous voltage-gated sodium channels accounted for large proportion in cells with less than 500 pA of voltage-gated sodium channel current which was induced by stimulating Ramp wave voltage.
(3) Pharmacological Effect on Nav1.1 Current
The effect of test compounds on the amplification of Nav1.1-derived voltage-gated sodium current was evaluated by using a cell line stably expressing human Nav1.1 and HTS automated patch clamp system. In other words, test compounds were added in an extracellular fluid containing 1% DMSO, and evaluated as a change of the peak value of Nav1.1 current and the area under the curve (AUC).
(4) Method for Pharmacological Evaluation
The Nav1.1 current amplification rates of test compounds were calculated by the following formula:
Nav1.1 current amplification rate (%)=100×[the peak value of Nav1.1 current or the area under the curve after the addition of test compounds]/[the peak value of Nav1.1 current or the area under the curve before the addition of test compounds]−100

Nav1.1 current amplification rate (%)	SMILES
265%	CC1CC=C(c2ccc(=O)n(CC(=O)N3CCc4c(-c5cn[nH]c5)cncc43)n2)CC1 (stereo not drawn) [Example 311]
73%	CC1CC=C(c2ccc(=O)n(CC(=O)N3CCc4c(CN5CC=CC5)cccc43)n2)CC1 (stereo not drawn) [Example 287]
50%	O=C(Cn1ncc2cnc(-c3ccc(Cl)s3)nc21)Nc1ccn2ncnc2c1 [Example 774]
164%	CC1CC=C(c2ncc3cnn(CC(=O)Nc4ccn5ncnc5c4)c3n2)CC1 (racemic) [Example 764]
174%	CC1CC=C(c2ccc(=O)n(CC(=O)Nc3cccc(-n4ccnc4)c3)n2)CC1 (stereo not drawn) [Example 363]
62%	CN(C)c1nc2cc(NC(=O)Cn3ncc4ncc(N(C)C5CCCC5)nc43)ccc2o1 [Example 674]
232%	CC1CC=C(c2ccc(=O)n(CC(=O)Nc3ccc4cnnn4c3)n2)CC1 (stereo not drawn) [Example 345]
127%	CC1CC=C(c2ccc(=O)n(CC(=O)Nc3ccc4ncnn4c3)n2)CC1 (stereo not drawn) [Example 339]
63%	CN(c1cnc2cnn(CC(=O)Nc3ccc4cnnn4c3)c2n1)C1CCCC1 [Example 679]
100%	CN(c1cnc2cnn(CC(=O)Nc3ccc4cccnc4c3)c2n1)C1CC1 [Example 711]

same assay, conditions: Concentration for evaluation 3 μM; HEK293 cell line stably expressing human Nav1.1

Nav1.1 current amplification rate (%)	SMILES
127%	CC1CC=C(c2ccc(=O)n(CC(=O)N3CCc4c(C5CCN(C)C5)cccc43)n2)CC1 (stereo not drawn) [Example 269]
564%	CC1CC=C(c2ccc(=O)n(CC(=O)N3CCc4c(-c5ccncc5)cccc43)n2)CC1 (stereo not drawn) [Example 250]
15%	COC1CN(Cc2nc3cc(NC(=O)Cn4nc(C5=CCC(C)CC5)ccc4=O)ccc3o2)C1 (stereo not drawn) [Example 332]
140%	CC1CC=C(c2ccc(=O)n(CC(=O)N3CCc4c(C5CN(C)C5)cccc43)n2)CC1 (stereo not drawn) [Example 300]
110%	CC1CC=C(c2ccc(=O)n(CC(=O)N3CCc4c(C5=CCNC5)cccc43)n2)CC1 (stereo not drawn) [Example 265]
6%	CC1CC=C(c2ccc(=O)n(CC(=O)N3CCc4c(C5CNC5)cccc43)n2)CC1 (stereo not drawn) [Example 299]
45%	CC1CC=C(c2ccc(=O)n(CC(=O)N3CC=C(c4ccccc4)CC3)n2)CC1 (stereo not drawn) [Example 257]
255%	CC1CC=C(c2ccc(=O)n(CC(=O)Nc3ccn4cc(C5CC5)nc4c3)n2)CC1 (stereo not drawn) [Example 334]

same assay, conditions: Concentration for evaluation 10 μM; HEK293 cell line stably expressing human Nav1.1

Nav1.1 current amplification rate (%)	SMILES
190%	O=C(Cn1nc(C2=CCC(C(F)(F)F)CC2)ccc1=O)N1CCN(c2cncc(F)c2)CC1 (stereo not drawn) [Example 487]
87%	CC1(C)CC=C(c2ccc(=O)n(CC(=O)N3CCN(c4ccccn4)CC3)n2)CC1 [Example 439]
414%	Cc1cncc(N2CCN(C(=O)Cn3nc(C4=CCC(C)(C)CC4)ccc3=O)CC2)c1 [Example 442]
13%	COc1ccc(NC(=O)Cn2nc(N3CCC(C)CC3)ccc2=O)cn1 [Example 62]
183%	Cc1nc2cc(NC(=O)Cn3nc(N4CCC(C)CC4)ccc3=O)ccc2s1 [Example 88]
216%	CC1(C)CC=C(c2ccc(=O)n(CC(=O)Nc3ccc(C#N)cc3)n2)CC1 [Example 42]
192%	CN1CCN(c2cccc3c2CCN3C(=O)Cn2nc(C3=CCC(C)(C)CC3)ccc2=O)CC1 [Example 433]
36%	CC1CC=C(c2ccc(=O)n(CC(=O)N3CCC(c4ccccc4)CC3)n2)CC1 (stereo not drawn) [Example 256]
60%	O=C(Cn1ncc2cnc(N3CCOCC3)nc21)Nc1ccn2ncnc2c1 [Example 767]
18%	CC1CC=C(c2ccc(=O)n(CC(=O)NC3CCN(c4ccccc4)CC3)n2)CC1 (stereo not drawn) [Example 368]
118%	COc1cc(=O)n(CC(=O)Nc2ccn3ccnc3c2)nc1C1=CCC(C)(C)CC1 [Example 459]
226%	CC1(C)CC=C(c2ccc(=O)n(CC(=O)N3CCc4c(OC5COC5)cccc43)n2)CC1 [Example 436]
88%	CC1CCN(c2ccc(=O)n(CC(=O)Nc3ccc4sc(N(C)C)nc4c3)n2)CC1 [Example 92]
15%	CC1CCN(c2ccc(=O)n(CC(=O)Nc3ccc4ncn(C)c4c3)n2)CC1 [Example 85]
286%	CC1CC=C(c2ccc(=O)n(CC(=O)N3CCN(c4cncc(C(F)(F)F)c4)CC3)n2)CC1 (stereo not drawn) [Example 401]
5%	N#Cc1ccc(NC(=O)Cn2nc(N3CCC4(CC3)COC4)ccc2=O)cc1 [Example 27]
58%	CC1CC2(C1)CN(c1cnc3cnn(CC(=O)Nc4ccn5ncnc5c4)c3n1)C2 [Example 638]

same assay, conditions: Concentration for evaluation 50 μM; HEK293 cell line stably expressing human Nav1.1

Nav1.1 current amplification rate (%)	SMILES
34%	CN(c1cnc2cnn(CC(=O)Nc3cc4ccccc4cn3)c2n1)C1CC1 [Example 718]
55%	CC1CC=C(c2ccc(=O)n(CC(=O)N3CCc4c(C=C5CCNCC5)cccc43)n2)CC1 (stereo not drawn) [Example 293]
78%	CN(c1cnc2cnn(CC(=O)Nc3ccc4cccnc4n3)c2n1)C1CC1 [Example 712]

same assay, conditions: HEK293, Concentration for evaluation 1 μM; HEK293 cell line stably expressing human Nav1.1; read-out: Nav1.1 current amplification rate (%)

activation at 1 µM	SMILES
84%	Cc1cnc(-c2cnc3cnn(CC(=O)Nc4ccn5ncnc5c4)c3n2)s1 [Example 575, 2-[6-(5-Methyl-1,3-thiazol-2-yl)-1H-pyrazolo[3,4-b]pyrazin-1-yl]-N-([1,2,4]triazolo[1,5-a]pyridin-7-yl)acetamide]
61%	Cc1cc(NC(=O)Cn2ncc3ncc(N4CCC5(CC5)C(F)(F)C4)nc32)cc2ncnn12 [Example 741]

same assay, conditions: HEK293, concentration for evaluation 1 μM; HEK293 stably expressing human Nav1.1; read-out: Nav1.1 current amplification rate (%)

activation at 1 µM	SMILES
221%	CN(c1ncc2cnn(CC(=O)Nc3cnc4cccnc4c3)c2n1)C1CC(C)(C)C1 [Example 844]
244%	CC1CC=C(c2cnc3cnn(CC(=O)Nc4ccn5ncnc5c4)c3n2)CC1 (stereo not drawn) [Example 895, 2-[6-(4-methylcyclohex-1-en-1-yl)-1H-pyrazolo[3,4-b]pyrazin-1-yl]-N-([1,2,4]triazolo[1,5-a]pyridin-7-yl)acetamide]

same assay, conditions: concentration for evaluation 1 μM; HEK293 stably expressing human Nav1.1

Nav1.1 current amplification rate (%)	SMILES
65%	O=C(Cn1ncc2ccc(C3=CCC(F)(F)CC3)nc21)Nc1ccn2ccnc2c1 [Example 867]
82%	CC1CCN(c2ccc3cnn(CC(=O)Nc4ccn5ncnc5c4)c3n2)CC1 [Example 853]
31%	O=C(Cn1ncc2cnc(N3CCC4(CC4)C(F)(F)C3)nc21)Nc1cccnc1 [Example 826]
55%	CN(CC1CC1)c1ncc2cnn(CC(=O)Nc3ccn4ncnc4c3)c2n1 [Example 800]
50%	CN(c1ncc2cnn(CC(=O)Nc3ccc4ncnn4c3)c2n1)C1CC2(CC2)C1 [Example 820]
93%	O=C(Cn1ncc2ccc(N3CCC4(CC3)CC4)nc21)Nc1ccn2ncnc2c1 [Example 855]
54%	CC(C)c1ccc(NC(=O)Cn2ncc3cnc(N4CCC5(CC5)C(F)(F)C4)nc32)cn1 [Example 829]
38%	CC1CCN(c2ccc3cnn(CC(=O)Nc4ccc5ncnn5c4)c3n2)CC1 [Example 872]

same assay, conditions: concentration for evaluation 50 μM; HEK293 stably expressing human Nav1.1

Nav1.1 current amplification rate (%)	SMILES
39%	CC1(C)CN(c2ccc3cnn(CC(=O)Nc4ccn5ncnc5c4)c3n2)C1 [Example 859]
